Values of other authors in PMC5281649 (European Journal of Nuclear Medicine and Molecular Imaging, 2016).

Columns and labels:
[1] = set-up: method as in doi:10.1016/S0924-977X(99)80017-0; conditions: doses providing full blockade of the enzyme; cited from earlier work
[2] = in vivo; cited from earlier work
[3] = cited from earlier work

## NCCNC(=O)c1ccc(Cl)cn1 [lazabemide]
[1]
  Effect on cognition and functionality in patients with AD: significant improvement in cognition and functionality
[2]
  Reason development not continued: hepatotoxic liability

## C#CCN(C)[C@H](C)Cc1ccccc1 [selegiline]
[3]
  Effect in 2-year trial in patients with moderate AD: may delay functional deterioration and disease progression
  Long-term effect on cognition in patients with moderate-to-severe AD: no long-term benefit on cognition
